# Several values for one entry are separate records, joined by “and”; a condition that tells them apart may be missing. Identical values can stand only once.
# Tested on: lethal dose of SEB in D-galactosamine-treated mouse model
# Parameters: species or system BALB/c mice
# Settings: in vivo
substance,measurement,value
lcT N K K K V T A Q E L D [pSEBLC(150–161)],Percent Survival,29% and 22%

# Reference: patent US7060277B2 (priority 1996, dated 2006)
